SMILES strings stand for the structures. Activity calls are given as the source filed them. The rule behind the calls is not given here.

The first experiment concerns H9c2. Kind of experiment: Cardioprotective activity against rat H9c2 cells assessed as inhibition of doxorubicin-induced cytotoxicity by measuring increase in cell suvival at 0.3 nM preincubated for 10 hrs followed by doxorubicin treatment and measured after 14 hrs by cQuant based analysis (reference value: 0%). Format: functional. Also on record: scale not given: the % may be the effect or the level left. As to conditions: time 24 hrs.
`C=CCN1CC[C@@]2(C(=O)Nc3ccccc32)[C@@H]1c1ccccc1`: the Activity is 4.6%.
Same read-out and setting: as for `COc1cc(OC)c2c(c1)O[C@@]1(c3ccc(Br)cc3)[C@H](c3ccccc3)C[C@@H](O)[C@@]21O`, the figure is 3.5%; as for `Cc1ccc2c(c1)NC(=O)C21CCNC1c1ccccc1` (stereo not given), 0.3%.
As for `CN1C(=O)[C@@]2(c3ccccc31)[C@H](c1ccccc1)N(C)C(=O)[C@@H]2O`, the Activity turned out to be 1.9%.
Still for that read-out and setting: as for `O=C1Nc2ccccc2[C@]12CCN(C1CCCC1)[C@H]2c1ccccc1`, the figure is 2.6%; as for `COC(=O)[C@H]1C[C@@]2(C(=O)Nc3ccccc32)[C@H](c2ccccc2)N1`, 2.9%; as for `CN1CC[C@@]2(C(=O)Nc3ccccc32)[C@@H]1c1ccccc1`, 5.4%.
Turning to `CCCN1CC[C@@]2(C(=O)Nc3ccccc32)[C@@H]1c1ccccc1`, the Activity amounted to 1.3%.
With `CCCCN1CC[C@@]2(C(=O)Nc3ccccc32)[C@@H]1c1ccccc1`, the Activity was found to be 0.9%.
For `O=C1N[C@@H](c2ccccc2)[C@]2(C(=O)Nc3ccccc32)[C@H]1O`, the Activity came to 3%.
The same measure, in the same setting: as for `CC(C)N1CC[C@@]2(C(=O)Nc3ccccc32)[C@@H]1c1ccccc1`, the figure is 6.7%.
On the same count and under the same terms, the value for `O=C1Nc2cc(Br)ccc2C12CCNC2c1ccccc1` (stereo not given) was 1.1%.
In the case of `CN(C)C(=O)CN1CC[C@@]2(C(=O)Nc3ccccc32)[C@@H]1c1ccccc1`, the Activity is reported as 1.4%.
Still for that read-out and setting: as for `CCN1CC[C@@]2(C(=O)Nc3ccccc32)[C@@H]1c1ccccc1`, the figure is 6%; as for `O=C(CN1CC[C@@]2(C(=O)Nc3ccccc32)[C@@H]1c1ccccc1)N1CCOCC1`, 0.3%; as for `O=C1Nc2ccccc2[C@]12CCNC2c1ccccc1` (stereo not given in full), 7.7%.
On the same count and under the same terms, as for `COC(=O)[C@H]1C[C@]2(C(=O)Nc3ccccc32)[C@@H](c2ccccc2)N1`, the figure is 4%.

For a further experiment, the system named is H9c2. As to the kind of experiment: Binding affinity to PHB1/2 in rat H9c2 cells assessed as induction of STAT3 phosphorylation at 10 nM incubated for 10 to 40 mins by western blot analysis. Format: cell-based. As to conditions: time 10-40 min. Background: A western blot detects proteins with antibodies after separation by electrophoresis.
Regarding `CC(C)N1CC[C@@]2(C(=O)Nc3ccccc32)[C@@H]1c1ccccc1`, the outcome was Active.

The next experiment deals with H9c2. As to the kind of experiment: Binding affinity to PHB2 in rat H9c2 cells incubated for overnight by AffiGel 10 beads pull down based western blot analysis. The format is cell-based.
Conditions: not given
In the case of `O=C(CCC(=O)ON1C(=O)CCC1=O)NCCNC(=O)CNCCOCCOCCOCCN1C(=O)C2(CCNC2c2ccccc2)c2ccccc21` (stereo not given), the result was Active.
Still for that read-out and setting: the value for `O=C(CCC(=O)ON1C(=O)CCC1=O)NCCNC(=O)CNCCOCCOCCOCCN1CCC2(C(=O)Nc3ccccc32)C1c1ccccc1` (stereo not given) was “Active”.

The subject of a further experiment is H9c2. As to the kind of experiment: Cardioprotective activity against rat H9c2 cells assessed as inhibition of doxorubicin-induced cytotoxicity at 10 to 30 nM preincubated for 10 hrs followed by doxorubicin treatment and measured after 14 hrs by cQuant based analysis. The format is functional, cell-based. As to conditions: dose 10-30 nM, time 24.0 hrs.
In the case of `C=CCN1CC[C@@]2(C(=O)Nc3ccccc32)[C@@H]1c1ccccc1`, the result was Active.
Still for that read-out and setting: the value for `COc1cc(OC)c2c(c1)O[C@@]1(c3ccc(Br)cc3)[C@H](c3ccccc3)C[C@@H](O)[C@@]21O` was “Active”; that for `CC(C)N1CC[C@@]2(C(=O)Nc3ccccc32)[C@@H]1c1ccccc1` was “Active”.

Another experiment has as its system H9c2. As to the kind of experiment: Binding affinity to PHB1 in rat H9c2 cells incubated for overnight by AffiGel 10 beads pull down based western blot analysis. Format: cell-based.
Conditions: not given
Regarding `O=C(CCC(=O)ON1C(=O)CCC1=O)NCCNC(=O)CNCCOCCOCCOCCN1C(=O)C2(CCNC2c2ccccc2)c2ccccc21` (stereo not given), the result was Active.
As for `O=C(CCC(=O)ON1C(=O)CCC1=O)NCCNC(=O)CNCCOCCOCCOCCN1CCC2(C(=O)Nc3ccccc32)C1c1ccccc1` (stereo not given), the result was Active.

The next experiment deals with H9c2. As to the kind of experiment: Cardioprotective activity against rat H9c2 cells assessed as inhibition of doxorubicin-induced cytotoxicity by measuring increase in cell suvival at 1 nM preincubated for 10 hrs followed by doxorubicin treatment and measured after 14 hrs by cQuant based analysis (reference value: 0%). The format is functional. Also on record: scale not given: the % may be the effect or the level left. As to conditions: time 24 hrs.
Turning to `C=CCN1CC[C@@]2(C(=O)Nc3ccccc32)[C@@H]1c1ccccc1`, the Activity amounted to 11.6%.
Consider `COc1cc(OC)c2c(c1)O[C@@]1(c3ccc(Br)cc3)[C@H](c3ccccc3)C[C@@H](O)[C@@]21O`, for which the Activity is given as 9.7%.
`Cc1ccc2c(c1)NC(=O)C21CCNC1c1ccccc1` (stereo not given): the Activity amounted to 2.6%.
On the same count and under the same terms, as for `CN1C(=O)[C@@]2(c3ccccc31)[C@H](c1ccccc1)N(C)C(=O)[C@@H]2O`, the figure is 2.9%.
As for `O=C1Nc2ccccc2[C@]12CCN(C1CCCC1)[C@H]2c1ccccc1`, the Activity is given as 0.2%.
With `COC(=O)[C@H]1C[C@@]2(C(=O)Nc3ccccc32)[C@H](c2ccccc2)N1`, the Activity was 7.1%.
Same read-out and setting: as for `CN1CC[C@@]2(C(=O)Nc3ccccc32)[C@@H]1c1ccccc1`, the figure is 7.6%; as for `CCCN1CC[C@@]2(C(=O)Nc3ccccc32)[C@@H]1c1ccccc1`, 0.8%.
Same read-out and setting: as for `CCCCN1CC[C@@]2(C(=O)Nc3ccccc32)[C@@H]1c1ccccc1`, the figure is 5.7%.
The same measure, in the same setting: the value for `O=C1N[C@@H](c2ccccc2)[C@]2(C(=O)Nc3ccccc32)[C@H]1O` was 5.8%; that for `CC(C)N1CC[C@@]2(C(=O)Nc3ccccc32)[C@@H]1c1ccccc1` was 10.7%.
Turning to `O=C1Nc2cc(Br)ccc2C12CCNC2c1ccccc1` (stereo not given), the Activity turned out to be 6.5%.
On the same count and under the same terms, the value for `CN(C)C(=O)CN1CC[C@@]2(C(=O)Nc3ccccc32)[C@@H]1c1ccccc1` was 0.2%; that for `CCN1CC[C@@]2(C(=O)Nc3ccccc32)[C@@H]1c1ccccc1` was 7.4%; that for `O=C(CN1CC[C@@]2(C(=O)Nc3ccccc32)[C@@H]1c1ccccc1)N1CCOCC1` was 0.3%.
Regarding `O=C1Nc2ccccc2[C@]12CCNC2c1ccccc1` (stereo not given in full), the Activity turned out to be 11.3%.
With `COC(=O)[C@H]1C[C@]2(C(=O)Nc3ccccc32)[C@@H](c2ccccc2)N1`, the Activity is reported as 6.4%.

The test system of another experiment is H9c2. As to the kind of experiment: Cardioprotective activity against rat H9c2 cells assessed as inhibition of doxorubicin-induced ROS production at 1 nM preincubated for 14 hrs followed by loading with DCFDA dye for 45 mins and later exposed to doxorubicin for 3 hrs by DCF-DA probe based fluorescence assay (reference value: 0%). The format is functional. As to conditions: H9c2, 17.75 h, time 1065 min.
As to `C=CCN1CC[C@@]2(C(=O)Nc3ccccc32)[C@@H]1c1ccccc1`, the inhibition (usually the relative decrease from the control value, in per cent) at 0.001 µM came out at 20.6%.
Still for that read-out and setting: the value for `COc1cc(OC)c2c(c1)O[C@@]1(c3ccc(Br)cc3)[C@H](c3ccccc3)C[C@@H](O)[C@@]21O` was 15.9%.
`Cc1ccc2c(c1)NC(=O)C21CCNC1c1ccccc1` (stereo not given): the inhibition at 0.001 µM was 3.2%.
In the case of `CN1C(=O)[C@@]2(c3ccccc31)[C@H](c1ccccc1)N(C)C(=O)[C@@H]2O`, the inhibition at 0.001 µM was determined as 2.1%.
On the same count and under the same terms, the value for `O=C1Nc2ccccc2[C@]12CCN(C1CCCC1)[C@H]2c1ccccc1` was 12.5%; that for `COC(=O)[C@H]1C[C@@]2(C(=O)Nc3ccccc32)[C@H](c2ccccc2)N1` was 2.7%.
On to `CN1CC[C@@]2(C(=O)Nc3ccccc32)[C@@H]1c1ccccc1`, for which the inhibition at 0.001 µM worked out at 15.6%.
For the compound `CCCN1CC[C@@]2(C(=O)Nc3ccccc32)[C@@H]1c1ccccc1`, the inhibition at 0.001 µM came out at 6.2%.
On the same count and under the same terms, the value for `CCCCN1CC[C@@]2(C(=O)Nc3ccccc32)[C@@H]1c1ccccc1` was 12.5%.
Turning to `O=C1N[C@@H](c2ccccc2)[C@]2(C(=O)Nc3ccccc32)[C@H]1O`, the inhibition at 0.001 µM came to 21.9%.
Still for that read-out and setting: the value for `CC(C)N1CC[C@@]2(C(=O)Nc3ccccc32)[C@@H]1c1ccccc1` was 20.5%.
For the compound `O=C1Nc2cc(Br)ccc2C12CCNC2c1ccccc1` (stereo not given), the inhibition at 0.001 µM is 6.5%.
Same read-out and setting: the value for `CN(C)C(=O)CN1CC[C@@]2(C(=O)Nc3ccccc32)[C@@H]1c1ccccc1` was 9.4%; that for `CCN1CC[C@@]2(C(=O)Nc3ccccc32)[C@@H]1c1ccccc1` was 12.5%; that for `O=C(CN1CC[C@@]2(C(=O)Nc3ccccc32)[C@@H]1c1ccccc1)N1CCOCC1` was 6.2%.
On to `O=C1Nc2ccccc2[C@]12CCNC2c1ccccc1` (stereo not given in full), for which the inhibition at 0.001 µM was 18.8%.
Still for that read-out and setting: as for `COC(=O)[C@H]1C[C@]2(C(=O)Nc3ccccc32)[C@@H](c2ccccc2)N1`, the figure is 9.4%.

In the next experiment the test system is H9c2. Kind of experiment: Cardioprotective activity against rat H9c2 cells assessed as inhibition of doxorubicin-induced ROS production at 0.3 nM preincubated for 14 hrs followed by loading with DCFDA dye for 45 mins and later exposed to doxorubicin for 3 hrs by DCF-DA probe based fluorescence assay (reference value: 0%). The format is functional. As to conditions: H9c2, 17.75 h, time 1065 min.
In the case of `C=CCN1CC[C@@]2(C(=O)Nc3ccccc32)[C@@H]1c1ccccc1`, the inhibition at 0.0003 µM was found to be 12.7%.
For `COc1cc(OC)c2c(c1)O[C@@]1(c3ccc(Br)cc3)[C@H](c3ccccc3)C[C@@H](O)[C@@]21O`, the inhibition at 0.0003 µM worked out at 9.5%.
As to `Cc1ccc2c(c1)NC(=O)C21CCNC1c1ccccc1` (stereo not given), the inhibition at 0.0003 µM was 0%.
The same measure, in the same setting: the value for `CN1C(=O)[C@@]2(c3ccccc31)[C@H](c1ccccc1)N(C)C(=O)[C@@H]2O` was 3.2%; that for `O=C1Nc2ccccc2[C@]12CCN(C1CCCC1)[C@H]2c1ccccc1` was 0%.
The same measure, in the same setting: as for `COC(=O)[C@H]1C[C@@]2(C(=O)Nc3ccccc32)[C@H](c2ccccc2)N1`, the figure is 2.9%.
Turning to `CN1CC[C@@]2(C(=O)Nc3ccccc32)[C@@H]1c1ccccc1`, the inhibition at 0.0003 µM turned out to be 9.4%.
Same read-out and setting: the value for `CCCN1CC[C@@]2(C(=O)Nc3ccccc32)[C@@H]1c1ccccc1` was 3.1%.
`CCCCN1CC[C@@]2(C(=O)Nc3ccccc32)[C@@H]1c1ccccc1`: the inhibition at 0.0003 µM is 6.2%.
Same read-out and setting: the value for `O=C1N[C@@H](c2ccccc2)[C@]2(C(=O)Nc3ccccc32)[C@H]1O` was 6.25%; that for `CC(C)N1CC[C@@]2(C(=O)Nc3ccccc32)[C@@H]1c1ccccc1` was 14.3%.
With `O=C1Nc2cc(Br)ccc2C12CCNC2c1ccccc1` (stereo not given), the inhibition at 0.0003 µM worked out at 3.2%.
Same read-out and setting: as for `CN(C)C(=O)CN1CC[C@@]2(C(=O)Nc3ccccc32)[C@@H]1c1ccccc1`, the figure is 0%.
With `CCN1CC[C@@]2(C(=O)Nc3ccccc32)[C@@H]1c1ccccc1`, the inhibition at 0.0003 µM turned out to be 9.4%.
On the same count and under the same terms, the value for `O=C(CN1CC[C@@]2(C(=O)Nc3ccccc32)[C@@H]1c1ccccc1)N1CCOCC1` was 0%; that for `O=C1Nc2ccccc2[C@]12CCNC2c1ccccc1` (stereo not given in full) was 12.5%; that for `COC(=O)[C@H]1C[C@]2(C(=O)Nc3ccccc32)[C@@H](c2ccccc2)N1` was 3.1%.

The subject of a further experiment is MCF7. As to the kind of experiment: Cytotoxicity against human MCF7 cells. The format is functional, cell-based.
Conditions: not given
In the case of `O=C1Nc2ccccc2[C@]12CCNC2c1ccccc1` (stereo not given in full), it took 3.5 µM to reach a half-maximal effect (EC50).

The test system of the next experiment is H9c2. Kind of experiment: Cardioprotective activity against rat H9c2 cells assessed as inhibition of doxorubicin-induced ROS production at 10 to 30 nM preincubated for 14 hrs followed by loading with DCFDA dye for 45 mins and later exposed to doxorubicin for 3 hrs by DCF-DA probe based fluorescence assay. Format: functional, cell-based. As to conditions: dose 10-30 nM, time 1065.0 min.
For the compound `C=CCN1CC[C@@]2(C(=O)Nc3ccccc32)[C@@H]1c1ccccc1`, the result was Active.
Still for that read-out and setting: the value for `COc1cc(OC)c2c(c1)O[C@@]1(c3ccc(Br)cc3)[C@H](c3ccccc3)C[C@@H](O)[C@@]21O` was “Active”; that for `CC(C)N1CC[C@@]2(C(=O)Nc3ccccc32)[C@@H]1c1ccccc1` was “Active”.
